Source: patent US20200046620A1, “Solid Compositions for Teeth Whitening and Anti-Microbial Effects” (Colgate-Palmolive Company, priority 2018, published 2020)

Experiment: pH-dependent bleaching of Lissamine green B dye by NaDCC
Type: physicochemical
Conditions: 10 mg NaDCC in 20 mL
Experimental: Two different solutions, Solution A and Solution B, were prepared. Solution A contained 2% SAPP, 0.1% Lissamine green B dye, and 97.9% water. Solution B contained 2% tetrasodium pyrophosphate (TSPP), 0.1% Lissamine green B dye, and 97.9% water. Next, solutions with various pHs were obtained by mixing the two different solutions A and B, in different volume ratios (i.e., 1:0, 1:5, 1:1, 5:1, and 0:1). 20 mL of the resulting solutions were added to 10 mg NaDCC, and the time required to bleach away all of the Lissamine green B color was recorded.

With `O=c1nc([O-])n(Cl)c(=O)n1Cl.[Na+]` [NaDCC, sodium dichloroisocyanurate] the Time to bleach (Mix Solution 1, VA:VB 1:0, pH 4.6) was “Instantaneous”, the Time to bleach (Mix Solution 2, VA:VB 1:5, pH 5.8) was 0.25 min and the Time to bleach (Mix Solution 3, VA:VB 1:1, pH 7.4) was 8 min. It also gave a Time to bleach (Mix Solution 4, VA:VB 5:1, pH 8.8) of 35 min and a Time to bleach (Mix Solution 5, VA:VB 0:1, pH 10.5) of 80 min.
